What all share (experiment): potency against CXCR6 with APJ panel – cell-based, beta-arrestin, DiscoveRx, uHTS hits, dose response (AID 624129)
For experiment [1], the target named is Apelin receptor (Homo sapiens) (UniProt P35414). The note with it: CXCR6 beta-arrestin (DiscoveRx) antagonist cell assay, APJ.
Experiment [2] addresses C-X-C chemokine receptor type 6 (Homo sapiens) (UniProt O00574). The conditions noted are these: CXCR6 beta-arrestin (DiscoveRx) antagonist cell assay.
The target in experiment [3] is C-C chemokine receptor type 6 (Homo sapiens) (UniProt P51684). The conditions noted are these: CXCR6 beta-arrestin (DiscoveRx) antagonist cell assay.
Experiment [4] concerns the target Beta-galactosidase (Escherichia coli) (UniProt Q8VNN2). The note with it: CXCR6 beta-arrestin (DiscoveRx) antagonist cell assay, b-galactosidase; for IC50: dose range 1; for pIC50: dose range 1, mean IC50 across replicates.
[5] abbreviates: dose range 1, mean IC50 across replicates.
Setting [6] is: CXCR6, dose range 1, mean IC50 across replicates.
[7] abbreviates: CCR6, dose range 1, mean IC50 across replicates.

pIC50: −log10 of the molar value. Calls of active or inactive are those of the source. No rule for the calls is given here. Where only a bound is given, the exact number is not on record here.

Sequence of Beta-galactosidase (Escherichia coli) (Q8VNN2 whole entry, looked up): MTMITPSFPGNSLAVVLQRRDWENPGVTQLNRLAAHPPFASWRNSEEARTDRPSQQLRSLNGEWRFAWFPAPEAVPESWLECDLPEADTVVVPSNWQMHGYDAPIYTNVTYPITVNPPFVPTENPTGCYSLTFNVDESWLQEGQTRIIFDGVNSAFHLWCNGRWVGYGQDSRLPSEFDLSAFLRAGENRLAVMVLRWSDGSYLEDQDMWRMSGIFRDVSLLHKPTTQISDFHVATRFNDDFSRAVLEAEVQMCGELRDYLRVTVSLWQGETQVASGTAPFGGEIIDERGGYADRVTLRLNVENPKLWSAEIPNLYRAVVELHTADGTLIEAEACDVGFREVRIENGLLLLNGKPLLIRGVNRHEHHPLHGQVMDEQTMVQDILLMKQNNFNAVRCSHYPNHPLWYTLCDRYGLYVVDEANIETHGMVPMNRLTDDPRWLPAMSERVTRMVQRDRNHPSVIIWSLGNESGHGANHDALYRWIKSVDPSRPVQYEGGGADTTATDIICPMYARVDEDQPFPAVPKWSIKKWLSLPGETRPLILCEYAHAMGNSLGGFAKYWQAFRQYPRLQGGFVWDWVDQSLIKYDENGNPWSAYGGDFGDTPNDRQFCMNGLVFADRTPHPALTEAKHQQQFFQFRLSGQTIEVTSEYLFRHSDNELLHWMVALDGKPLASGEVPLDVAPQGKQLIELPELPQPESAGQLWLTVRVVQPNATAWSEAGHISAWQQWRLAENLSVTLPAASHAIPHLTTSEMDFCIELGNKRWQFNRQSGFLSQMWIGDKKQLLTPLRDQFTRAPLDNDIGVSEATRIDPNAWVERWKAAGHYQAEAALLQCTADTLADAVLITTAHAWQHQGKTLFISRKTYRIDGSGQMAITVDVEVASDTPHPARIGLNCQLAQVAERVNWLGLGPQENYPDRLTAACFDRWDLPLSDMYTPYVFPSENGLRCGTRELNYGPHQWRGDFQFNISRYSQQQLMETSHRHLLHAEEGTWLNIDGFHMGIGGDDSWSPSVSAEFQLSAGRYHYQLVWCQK
Sequence of C-X-C chemokine receptor type 6 (Homo sapiens) (O00574 whole entry, looked up): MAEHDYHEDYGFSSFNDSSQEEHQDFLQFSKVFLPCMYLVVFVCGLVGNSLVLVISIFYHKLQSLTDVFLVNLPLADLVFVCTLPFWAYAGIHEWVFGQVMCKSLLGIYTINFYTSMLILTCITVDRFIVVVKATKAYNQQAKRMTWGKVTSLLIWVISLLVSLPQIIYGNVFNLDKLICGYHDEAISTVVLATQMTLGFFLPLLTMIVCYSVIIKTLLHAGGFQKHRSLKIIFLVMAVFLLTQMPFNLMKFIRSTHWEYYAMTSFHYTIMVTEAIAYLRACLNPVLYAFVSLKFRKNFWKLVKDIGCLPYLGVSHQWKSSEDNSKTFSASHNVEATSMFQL

For orientation: pIC50 means the IC50 on a negative log10 scale, so that one unit is a factor of ten. The inhibition is the percentage by which the read-out fell short of the control. By IC50 is commonly meant the midpoint of a concentration-inhibition curve. Regarding `COc1ccc(NC(=O)/C(Cl)=C(/Cl)S(=O)(=O)Cc2ccc(C)cc2)cn1`, the pIC50 was 6.16 in experiment [1] (dose range 1); 6.16 in experiment [1] (setting [5]); 6.16 in experiment [1] (run 2, dose range 1); 6.17 in experiment [1] (run 3, dose range 1); 6.02 in experiment [2] (CXCR6, dose range 1); 6.05 in experiment [2] (setting [6]). Further, the pIC50 is 6.08 in experiment [2] (CXCR6, run 2, dose range 1); 6.31 in experiment [3] (CCR6, dose range 1); 6.16 in experiment [3] (setting [7]); 6.05 in experiment [3] (CCR6, run 2, dose range 1); under 4.10 in experiment [4]. For the same compound, in experiment [2] (CXCR6, run 1, dose range 2, at 10 µM (top of the series)), the inhibition was determined as 99.9%. Further, in experiment [4], the IC50 was > 80 µM (inactive).

Take `CCn1c(Cl)c(C=O)s/c1=N\S(=O)(=O)c1ccccc1`: the negative logarithm of the IC50 (pIC50) was 5.16 in experiment [1] (dose range 1); 5.22 in experiment [1] (setting [5]); 5.26 in experiment [1] (run 2, dose range 1); 5.25 in experiment [1] (run 3, dose range 1); 5.32 in experiment [2] (CXCR6, dose range 1); 5.31 in experiment [2] (setting [6]). For the same compound, the negative-log IC50 (pIC50) in experiment [2] (CXCR6, run 1, dose range 2) was 5.29; in experiment [2] (CXCR6, run 2, dose range 1), 5.29; in experiment [2] (CXCR6, run 2, dose range 2) it was 5.34; in experiment [3] (CCR6, dose range 1) it was 5.50; in experiment [3] (setting [7]) it was 5.44; in experiment [3] (CCR6, run 2, dose range 1), 5.39. The compound further gave a pIC50 in experiment [4] of under 4.10. For the same compound, the IC50 in experiment [4] was > 80 µM (inactive).

Consider `O=C(CN1CCN(S(=O)(=O)c2ccc(Br)cc2)CC1)Nc1ccc2c(c1)OCO2`, for which the pIC50 in experiment [1] (dose range 1) was 4.66; in experiment [1] (setting [5]), 4.61; in experiment [1] (run 2, dose range 1) it was 4.56; in experiment [1] (run 3, dose range 1), under 4.10; in experiment [2] (setting [6]) it was 4.68; in experiment [2] (CXCR6, run 2, dose range 1), 4.72. Further, the pIC50 in experiment [3] (CCR6, dose range 1) was 4.68; in experiment [3] (setting [7]), 4.69; in experiment [3] (CCR6, run 2, dose range 1), 4.69; in experiment [4], under 4.10. The IC50 entry in experiment [2] (CXCR6, dose range 1) was “inactive”. In addition, in experiment [2] (CXCR6, run 1, dose range 2, at 80 µM (top of the series)), the inhibition turned out to be 100%. The IC50 in experiment [4] is > 80 µM (inactive).

Regarding `COc1ccc(/C=C/c2ccc3cccc(O)c3n2)c(OC)c1OC`, the pIC50 is 5.31 in experiment [1] (dose range 1); 5.16 in experiment [1] (setting [5]); 5.05 in experiment [1] (run 2, dose range 1); 5.16 in experiment [1] (run 3, dose range 1); 5.30 in experiment [2] (CXCR6, dose range 1); 5.39 in experiment [2] (setting [6]). Moreover, the pIC50 in experiment [2] (CXCR6, run 1, dose range 2) was 5.46; in experiment [2] (CXCR6, run 2, dose range 1), 5.29; in experiment [2] (CXCR6, run 2, dose range 2) it was 5.54; in experiment [3] (CCR6, dose range 1), 5.43; in experiment [3] (setting [7]) it was 5.51; in experiment [3] (CCR6, run 2, dose range 1) it was 5.61. Besides, the pIC50 in experiment [4] was under 4.10. In addition, the IC50 in experiment [4] is > 80 µM (inactive).

Take `CCOC(=O)CSc1cccc2cccnc12`: the pIC50 is 5.35 in experiment [1] (dose range 1); 5.26 in experiment [1] (setting [5]); 5.17 in experiment [1] (run 2, dose range 1); 5.29 in experiment [1] (run 3, dose range 1); 5.15 in experiment [2] (CXCR6, dose range 1); 5.23 in experiment [2] (setting [6]). Moreover, the pIC50 in experiment [2] (CXCR6, run 1, dose range 2) is 5.40; in experiment [2] (CXCR6, run 2, dose range 1), 5.09; in experiment [2] (CXCR6, run 2, dose range 2), 5.37; in experiment [3] (CCR6, dose range 1), 5.33; in experiment [3] (setting [7]), 5.28; in experiment [3] (CCR6, run 2, dose range 1) it was 5.23. The pIC50 in experiment [4] was under 4.10. In experiment [4], the IC50 is > 80 µM (inactive).

Regarding `N=C1S/C(=C\c2ccco2)C(=O)N1c1nccs1`, the pIC50 was 5.07 in experiment [1] (dose range 1); 4.98 in experiment [1] (setting [5]); 4.91 in experiment [1] (run 2, dose range 1); 4.97 in experiment [1] (run 3, dose range 1); 4.98 in experiment [2] (CXCR6, dose range 1); 5.05 in experiment [2] (setting [6]). Also, the pIC50 in experiment [2] (CXCR6, run 1, dose range 2) was 5.19; in experiment [2] (CXCR6, run 2, dose range 1), 5.02; in experiment [2] (CXCR6, run 2, dose range 2) it was 5.02; in experiment [3] (CCR6, dose range 1), 5.09; in experiment [3] (setting [7]), 5.07; in experiment [3] (CCR6, run 2, dose range 1), 5.05. Besides, the negative logarithm of the IC50 (pIC50) in experiment [4] was under 4.10. Besides, the IC50 in experiment [4] was > 80 µM (inactive).

The values above are taken from PubChem BioAssay AID624129 (Sanford-Burnham Center for Chemical Genomics, 2012).
